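Interpolation was linear, between the two tested concentrations surrounding the appropriate level; five concentrations were tested over 48 hours in 96-well plates. TGI: total growth inhibition.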
Tests used:
Test in all cases: NCI-60 cell line screen, 48 h
SF-295 CNS = system: SF-295 CNS
A549 NSCLC = system: A549 NSCLC
MDA-N = system: MDA-N
UACC-62 melanoma = system: UACC-62 melanoma
HCC-2998 colon = system: HCC-2998 colon
NCI-H460 lung = system: NCI-H460 lung
HS 578T breast = system: HS 578T breast
SR leukemia = system: SR leukemia
MALME-3M melanoma = system: MALME-3M melanoma
SK-MEL-5 melanoma = system: SK-MEL-5 melanoma
OVCAR-8 ovarian = system: OVCAR-8 ovarian
OVCAR-3 ovarian = system: OVCAR-3 ovarian
CCRF-CEM leukemia = system: CCRF-CEM leukemia
HCT-15 colon = system: HCT-15 colon
SK-MEL-2 melanoma = system: SK-MEL-2 melanoma
T-47D breast = system: T-47D breast

## C=CCOC(=O)NC1C(OC(C)[C@@H](NC(=O)OCc2ccccc2)C(=O)OC(C)(C)C)OC(COC(C)=O)C(OC(C)=O)C1OC(C)=O (some centres undefined)
SF-295 CNS
  TGI: > 100 µM
A549 NSCLC
  TGI: > 100 µM
MDA-N
  TGI: > 100 µM
UACC-62 melanoma
  TGI: > 100 µM
HCC-2998 colon
  TGI: > 100 µM
NCI-H460 lung
  TGI: > 100 µM
HS 578T breast
  TGI: > 100 µM
SR leukemia
  TGI: > 100 µM
MALME-3M melanoma
  TGI: > 100 µM
SK-MEL-5 melanoma
  TGI: > 100 µM
OVCAR-8 ovarian
  TGI: > 100 µM
OVCAR-3 ovarian
  TGI: > 100 µM
CCRF-CEM leukemia
  TGI: > 100 µM
HCT-15 colon
  TGI: > 100 µM

## Cc1cc(N(CCC#N)CCC#N)ccc1/C(N=Nc1ccc(C(=O)O)cc1)=N\NC(=O)c1cc(Cl)ccc1O
SK-MEL-2 melanoma
  TGI: > 100 µM
SF-295 CNS
  TGI: 34.7 µM
A549 NSCLC
  TGI: > 100 µM
UACC-62 melanoma
  TGI: > 100 µM
HCC-2998 colon
  TGI: > 100 µM
T-47D breast
  TGI: > 100 µM
NCI-H460 lung
  TGI: > 100 µM
HS 578T breast
  TGI: 47.1 µM
SR leukemia
  TGI: > 100 µM
MALME-3M melanoma
  TGI: > 100 µM
SK-MEL-5 melanoma
  TGI: > 100 µM
OVCAR-8 ovarian
  TGI: 93.1 µM
OVCAR-3 ovarian
  TGI: > 100 µM
CCRF-CEM leukemia
  TGI: > 100 µM
HCT-15 colon
  TGI: > 100 µM

## O=S(Nc1ccccc1)c1cccc(Cl)c1 (centres undefined)
SF-295 CNS
  TGI: > 100 µM
A549 NSCLC
  TGI: > 100 µM
MDA-N
  TGI: > 100 µM
HCC-2998 colon
  TGI: 76.3 µM
NCI-H460 lung
  TGI: > 100 µM
HS 578T breast
  TGI: > 100 µM
SR leukemia
  TGI: > 100 µM
MALME-3M melanoma
  TGI: > 100 µM
SK-MEL-5 melanoma
  TGI: > 100 µM
OVCAR-8 ovarian
  TGI: > 100 µM
OVCAR-3 ovarian
  TGI: > 100 µM
CCRF-CEM leukemia
  TGI: > 100 µM
HCT-15 colon
  TGI: > 100 µM

## CC(=O)OCC1OC(c2nc3ccccc3s2)=CC(OC(C)=O)C1OC(C)=O (centres undefined)
SF-295 CNS
  TGI: > 100 µM
A549 NSCLC
  TGI: > 100 µM
MDA-N
  TGI: > 100 µM
NCI-H460 lung
  TGI: > 100 µM
HS 578T breast
  TGI: > 100 µM
SR leukemia
  TGI: > 100 µM
MALME-3M melanoma
  TGI: > 100 µM
SK-MEL-5 melanoma
  TGI: > 100 µM
OVCAR-8 ovarian
  TGI: > 100 µM
OVCAR-3 ovarian
  TGI: > 100 µM
CCRF-CEM leukemia
  TGI: > 100 µM

## CCCCc1ccc(Nc2nc(SC)c3[nH]cnc3n2)cc1
SK-MEL-2 melanoma
  TGI: > 100 µM
SF-295 CNS
  TGI: > 100 µM
A549 NSCLC
  TGI: > 100 µM
UACC-62 melanoma
  TGI: > 100 µM
HCC-2998 colon
  TGI: > 100 µM
T-47D breast
  TGI: > 100 µM
NCI-H460 lung
  TGI: > 100 µM
HS 578T breast
  TGI: > 100 µM
SR leukemia
  TGI: 9.69 µM
MALME-3M melanoma
  TGI: > 100 µM
SK-MEL-5 melanoma
  TGI: > 100 µM
OVCAR-8 ovarian
  TGI: > 100 µM
OVCAR-3 ovarian
  TGI: > 93.5 µM
CCRF-CEM leukemia
  TGI: 12.3 µM
HCT-15 colon
  TGI: > 100 µM

## CN1CNc2nc(N)n(C)c(=O)c2C1
SK-MEL-2 melanoma
  TGI: > 10 µM
SF-295 CNS
  TGI: > 10 µM
A549 NSCLC
  TGI: > 10 µM
MDA-N
  TGI: > 10 µM
UACC-62 melanoma
  TGI: > 10 µM
HCC-2998 colon
  TGI: > 10 µM
NCI-H460 lung
  TGI: > 10 µM
SR leukemia
  TGI: > 10 µM
MALME-3M melanoma
  TGI: > 10 µM
OVCAR-8 ovarian
  TGI: > 10 µM
OVCAR-3 ovarian
  TGI: > 10 µM
CCRF-CEM leukemia
  TGI: > 10 µM
HCT-15 colon
  TGI: > 10 µM

## CCSc1n/c(=C\c2ccco2)c2nncn12
SK-MEL-2 melanoma
  TGI: > 100 µM
SF-295 CNS
  TGI: > 100 µM
A549 NSCLC
  TGI: > 100 µM
MDA-N
  TGI: > 100 µM
UACC-62 melanoma
  TGI: > 100 µM
HS 578T breast
  TGI: > 100 µM
SR leukemia
  TGI: > 100 µM
MALME-3M melanoma
  TGI: > 100 µM
SK-MEL-5 melanoma
  TGI: > 100 µM
OVCAR-8 ovarian
  TGI: > 100 µM
OVCAR-3 ovarian
  TGI: > 100 µM
CCRF-CEM leukemia
  TGI: > 100 µM
HCT-15 colon
  TGI: > 100 µM

## COc1ccc(-n2c(=O)[nH]n(C(C)=O)c2=O)cc1
SK-MEL-2 melanoma
  TGI: > 100 µM
SF-295 CNS
  TGI: > 100 µM
A549 NSCLC
  TGI: > 100 µM
MDA-N
  TGI: > 100 µM
UACC-62 melanoma
  TGI: > 100 µM
NCI-H460 lung
  TGI: > 100 µM
HS 578T breast
  TGI: > 100 µM
SR leukemia
  TGI: > 100 µM
MALME-3M melanoma
  TGI: > 100 µM
SK-MEL-5 melanoma
  TGI: > 100 µM
OVCAR-8 ovarian
  TGI: > 100 µM
CCRF-CEM leukemia
  TGI: > 100 µM
HCT-15 colon
  TGI: > 100 µM

## N#CC(=C1CCN(CCCC(=O)c2ccc(F)cc2)CC1)c1ccccc1
SK-MEL-2 melanoma
  TGI: > 100 µM
SF-295 CNS
  TGI: > 100 µM
A549 NSCLC
  TGI: > 100 µM
UACC-62 melanoma
  TGI: > 100 µM
HCC-2998 colon
  TGI: > 100 µM
T-47D breast
  TGI: > 100 µM
NCI-H460 lung
  TGI: > 100 µM
HS 578T breast
  TGI: > 100 µM
SR leukemia
  TGI: > 100 µM
MALME-3M melanoma
  TGI: > 100 µM
SK-MEL-5 melanoma
  TGI: > 100 µM
OVCAR-8 ovarian
  TGI: > 100 µM
CCRF-CEM leukemia
  TGI: > 100 µM
HCT-15 colon
  TGI: > 100 µM

## CC[C@]1(Cc2ccc(OC)c(OC)c2)C=[N+]([O-])O[C@H](OC2CCCC2(c2ccccc2)c2ccccc2)[C@@H]1OC(C)=O (some centres undefined)
SK-MEL-2 melanoma
  TGI: 14.7 µM
SF-295 CNS
  TGI: 17.5 µM
A549 NSCLC
  TGI: 18.8 µM
UACC-62 melanoma
  TGI: 12.7 µM
HCC-2998 colon
  TGI: 7.71 µM
T-47D breast
  TGI: 12.4 µM
NCI-H460 lung
  TGI: 20.7 µM
HS 578T breast
  TGI: 46.5 µM
SR leukemia
  TGI: > 100 µM
MALME-3M melanoma
  TGI: 4.83 µM
SK-MEL-5 melanoma
  TGI: 11.9 µM
OVCAR-8 ovarian
  TGI: 7.98 µM
OVCAR-3 ovarian
  TGI: 4.13 µM
CCRF-CEM leukemia
  TGI: > 100 µM
HCT-15 colon
  TGI: 15.8 µM

## O=C(NCCNCCCNC(=O)c1cc(-c2ccccc2)nc2ccccc12)c1cccc(O)c1O
SK-MEL-2 melanoma
  TGI: 15.1 µM
SF-295 CNS
  TGI: 28.7 µM
A549 NSCLC
  TGI: > 100 µM
UACC-62 melanoma
  TGI: 12.1 µM
HCC-2998 colon
  TGI: 17.4 µM
T-47D breast
  TGI: 10.8 µM
NCI-H460 lung
  TGI: 41.6 µM
HS 578T breast
  TGI: > 100 µM
MALME-3M melanoma
  TGI: 20.2 µM
SK-MEL-5 melanoma
  TGI: 4.09 µM
OVCAR-3 ovarian
  TGI: 26.3 µM
CCRF-CEM leukemia
  TGI: > 100 µM
HCT-15 colon
  TGI: 26.8 µM

## CN(C)C(=S)/N=c1\ssc(=S)n1Cc1cccnc1
SK-MEL-2 melanoma
  TGI: > 35.8 µM
SF-295 CNS
  TGI: 16.8 µM
A549 NSCLC
  TGI: > 100 µM
UACC-62 melanoma
  TGI: > 67.7 µM
HCC-2998 colon
  TGI: > 100 µM
T-47D breast
  TGI: > 100 µM
NCI-H460 lung
  TGI: > 95.7 µM
HS 578T breast
  TGI: > 100 µM
SR leukemia
  TGI: > 100 µM
MALME-3M melanoma
  TGI: > 100 µM
SK-MEL-5 melanoma
  TGI: 37.8 µM
OVCAR-8 ovarian
  TGI: > 100 µM
OVCAR-3 ovarian
  TGI: 9.47 µM
CCRF-CEM leukemia
  TGI: > 86.1 µM
HCT-15 colon
  TGI: > 75 µM

## O=C1NC(=S)N/C1=C\c1ccc(Br)s1
SK-MEL-2 melanoma
  TGI: > 100 µM
SF-295 CNS
  TGI: > 100 µM
MDA-N
  TGI: > 100 µM
UACC-62 melanoma
  TGI: > 100 µM
HCC-2998 colon
  TGI: > 100 µM
NCI-H460 lung
  TGI: > 100 µM
HS 578T breast
  TGI: > 100 µM
SR leukemia
  TGI: > 100 µM
MALME-3M melanoma
  TGI: > 100 µM
SK-MEL-5 melanoma
  TGI: > 100 µM
OVCAR-3 ovarian
  TGI: > 100 µM
CCRF-CEM leukemia
  TGI: > 100 µM
HCT-15 colon
  TGI: > 100 µM

## CCOC(=O)c1c(N)sc2c1C(C)(C(=O)OCC)CC2 (centres undefined)
SK-MEL-2 melanoma
  TGI: > 100 µM
A549 NSCLC
  TGI: > 100 µM
MDA-N
  TGI: > 100 µM
UACC-62 melanoma
  TGI: > 100 µM
HCC-2998 colon
  TGI: > 100 µM
NCI-H460 lung
  TGI: > 100 µM
HS 578T breast
  TGI: > 100 µM
SR leukemia
  TGI: > 100 µM
MALME-3M melanoma
  TGI: > 100 µM
SK-MEL-5 melanoma
  TGI: > 100 µM
OVCAR-8 ovarian
  TGI: > 100 µM
HCT-15 colon
  TGI: > 100 µM

Reference: PubChem BioAssay (NCI)
